Assay results reported in US8680100B2, “Sulfonylhydrazide compounds for treating proliferative disorders” (Synta Pharmaceuticals Corp., priority 2008, dated 2014).

Test system: HSP70
Experiment: Hsp70 Activity Essay (HSP70 ELISA on lysates of MDA435 cells)
Assay type: cell-based
Details: concentration that increases HSP70 to 50% of maximum increase by N′1,N′3-dimethyl-N′1,N′3-di(phenylcarbonothioyl)malonohydrazide
Description: Each well was plated with MDA435 cells using DMEM 10% FBS Phenol-red free medium 2.5 k/well and incubated in a 37° C./5% CO2 incubator for a minimum of 6 hours to obtain good cell adherence.
Dilutions of each test compound were prepared in DMSO and DMEM 10% FBS Phenol-red free medium. The final concentration in each well was 1250 nM, 125 nM, 12.5 nM or 1.25 nM of test compound and 0.25% DMSO. 0.25% DMSO was used as a negative control. Lysis buffer (any lysis buffer suitable for use in the Assay Designs kit, e.g., such as that described in the kit instructions) was then added (amount used is one quarter of the volume already present in each plate) and the mixtures were then shaken for 10 minutes.
150 μL of “Can Get Signal” Immunoreaction Enhancer Solution (Solution 1 for primary antibody, TOYOBO, Catalogue No. NKB-101) were added to each of a series of ELISA plates. The ELISA plates were obtained from the HSP70 ELISA Kit (catalogue number EKS-700B) purchased from Assay Designs (Ann Arbor, Mich.). After the cells were lysed, 50 μL of lysate were taken from each well and added to an ELISA plate, resulting in a 4 fold dilution of the lysate (50 μL of lysate and 150 μL of Can Get Signal solution). The plates were covered with adhesive tape and incubated overnight at 4° C.;
In the morning, the liquid was aspirated from all wells and 400 μL of Washing Buffer made from 20× concentrate provided in the ELISA Kit and distilled water were added and then removed by aspiration. The addition of Washing Buffer and aspiration was repeated four times. After the fourth wash, the plate were inverted to a paper towel and carefully patted dry. 100 μL of HSP70 antibody provided in ELISA Kit were added to each well. Each well was covered with adhesive tape and incubated for one hour at room temperature. Washing Buffer was then added followed by removal with aspiration. The addition of Washing Buffer and aspiration was repeated four times, after which the plates were inverted and patted dry. 100 μL of HSP70 conjugate (provided in the ELISA Kit) were added to the wells. Each well was then covered with adhesive tape and incubated for one hour at room temperature. Washing Buffer was then added followed by removal with aspiration. The addition of Washing Buffer and aspiration was repeated four times, after which the plates were inverted and patted dry.
100 μL of the TMB Substrate (obtained from the ELISA Kit) were added to the wells (color development was visible in 1 minute). The wells were incubated until saturated color development (usually 5-15 minutes). Stop Solution 2 (provided in the ELISA Kit) was added in the same order TMB Substrate was added. The OD450 was then obtained using a plate reader. The EC50 for the compounds was calculated using N′^1,N′^3-dimethyl-N′^1,N′^3-di(phenylcarbonothioyl)malonohydrazide on the same plate as a control (concentration that increases HSP70 to 50% of maximum increase by N′^1,N′^3-dimethyl-N′^1,N′^3-di(phenylcarbonothioyl)malonohydrazide). The EC50 for each of the compounds tested is shown in example 1.

Structure (SMILES)	EC50 [nM]
CN(NC(=O)CS(=O)(=O)NN(C)C(=S)C1CC1)C(=S)c1cnco1 [Compound 74, N′-(cyclopropanecarbonothioyl)-N′-methyl-2-(2-methyl-2-(oxazole-5-carbonothioyl)hydrazinyl)-2-oxoethanesulfonohydrazide]	301
CCCCN(NS(=O)(=O)CC(=O)NN(C)C(=S)c1ccccc1)C(=S)c1ccccc1 [Compound 75, N′-butyl-2-(2-methyl-2-(phenylcarbonothioyl)hydrazinyl)-2-oxo-N′-(phenylcarbonothioyl) ethanesulfonohydrazide]	810
CN(NS(=O)(=O)CC(=O)NN(C)C(=S)C1CC1)C(=S)c1cncs1 [Compound 76, 2-(2-(cyclopropanecarbonothioyl)-2-methylhydrazinyl)-N′-methyl-2-oxo-N′-(thiazole-5-carbonothioyl)-ethanesulfonohydrazide]	1180
CN(NS(=O)(=O)CC(=O)NN(C)C(=S)C1CC1)C(=S)c1cnco1 [Compound 77, 2-(2-(cyclopropanecarbonothioyl)-2-methylhydrazinyl)-N′-methyl-N′-(oxazole-5-carbonothioyl)-2-oxoethanesulfonohydrazide]	967
CN(NS(=O)(=O)CC(=O)NN(C)C(=S)c1ccccc1C(F)(F)F)C(=S)c1ccccc1 [Compound 81, N′-methyl-2-(2-methyl-2-(2-(trifluoromethyl)phenylcarbono-thioyl)hydrazinyl)-2-oxo-N′-(phenylcarbonothioyl)ethane-sulfonohydrazide]	354
CN(C)C=C(C(=O)NN(C)C(=S)C1CC1)S(=O)(=O)NN(C)C(=S)C1CC1 [Compound 88, N′-(cyclopropanecarbonothioyl)-3-(2-(cyclopropanecarbonothioyl)-2-methylhydrazinyl)-1-(dimethylamino)-N′-methyl-3-oxoprop-1-ene-2-sulfonohydrazide]	209
CNC=C(C(=O)NN(C)C(=S)C1CC1)S(=O)(=O)NN(C)C(=S)C1CC1 [Compound 89, N′-(cyclopropanecarbonothioyl)-3-(2-(cyclopropanecarbonothioyl)-2-methylhydrazinyl)-N′-methyl-1-(methylamino)-3-oxoprop-1-ene-2-sulfonohydrazide]	201
CN(NC(=O)C(=CNC1CC1)S(=O)(=O)NN(C)C(=S)C1CC1)C(=S)C1CC1 [Compound 90, N′-(cyclopropanecarbonothioyl)-3-(2-(cyclopropanecarbonothioyl)-2-methylhydrazinyl)-1-(cyclopropylamino)-N′-methyl-3-oxoprop-1-ene-2-sulfonohydrazide]	227
CC(C)NC=C(C(=O)NN(C)C(=S)C1CC1)S(=O)(=O)NN(C)C(=S)C1CC1 [Compound 91, N′-(cyclopropanecarbonothioyl)-3-(2-(cyclopropanecarbonothioyl)-2-methylhydrazinyl)-1-(isopropylamino)-N′-methyl-3-oxoprop-1-ene-2-sulfonohydrazide]	229

Stronger by EC50, values ahead:

EC50 [nM]	Structure (SMILES)
77	CN(NC(=O)CS(=O)(=O)NN(C)C(=S)c1ccsc1)C(=S)c1ccccc1 [Compound 57, N′-methyl-2-(2-methyl-2-(phenylcarbonothioyl)hydrazinyl)-2-oxo-N′-(thiophene-3-carbonothioyl)ethanesulfono-hydrazide]
77	CN(NC(=O)CS(=O)(=O)NN(C)C(=S)c1ccccc1)C(=S)c1ccsc1 [Compound 58, N′-methyl-2-(2-methyl-2-(thiophene-3-carbonothioyl)hydrazinyl)-2-oxo-N′-(phenylcarbonothioyl)ethane-sulfonohydrazide]
129	CN(NC(=O)CS(=O)(=O)NN(C)C(=S)c1csc2ccccc12)C(=S)c1ccccc1 [Compound 59]
48	CN(NS(=O)(=O)CC(=O)NN1CCCCC1=S)C(=S)c1ccccc1 [Compound 66, 2-(2-methyl-2-(phenylcarbonothioyl)hydrazinyl-sulfonyl)-N′-(2-thioxopiperidin-1-yl)acetamide]
63	CCN(CC)C(=S)N(C)NS(=O)(=O)CC(=O)NN(C)C(=S)c1ccccc1 [Compound 68, N,N-diethyl-1-methyl-2-(2-(2-methyl-2-(phenylcarbonothioyl)hydrazinyl)-2-oxoethylsulfonyl)hydrazine-carbothioamide]
85	CCN(CC)C(=S)N(C)NC(=O)CS(=O)(=O)NN(C)C(=S)c1ccccc1 [Compound 69, N,N′-diethyl-1-methyl-2-(2-(2-methyl-2-(phenylcarbonothioyl)hydrazinyl-sulfonyl)acetyl)hydrazine-carbothioamide]
127	CCN(CC)C(=S)N(C)NS(=O)(=O)CC(=O)NN(C)C(=S)c1cnccn1 [Compound 70, N,N′-diethyl-1-methyl-2-(2-(2-methyl-2-(pyrazine-2-carbonothioyl)hydrazinyl)-2-oxoethylsulfonyl)hydrazine-carbothioamide]
139	CN(NC(=O)CS(=O)(=O)NN(C)C(=S)c1ccccc1F)C(=S)c1ccccc1 [Compound 80, N′-(2-fluorophenylcarbonothioyl)-N′-methyl-2-(2-methyl-2-(phenylcarbonothioyl)hydrazinyl)-2-oxoethanesulfonohydrazide]
173	CN(NS(=O)(=O)CC(=O)NN(C)C(=S)c1ccccc1F)C(=S)c1ccccc1 [Compound 82, 2-(2-(2-fluorophenylcarbonothioyl)-2-methylhydrazinyl)-N′-methyl-2-oxo-N′-(phenylcarbonothioyl)ethane-sulfonohydrazide]
144	CN(NC(=O)CS(=O)(=O)NN(C)C(=S)C1CC1)C(=S)c1cccc(C(F)(F)F)n1 [Compound 84, N′-(cyclopropanecarbonothioyl)-N′-methyl-2-(2-methyl-2-(6-(trifluoromethyl)pyridine-2-carbonothioyl)hydrazinyl)-2-oxoethanesulfonohydrazide]
60	COCC(=S)N(C)NC(=O)CS(=O)(=O)NN(C)C(=S)c1ccccc1 [Compound 85, 2-(2-(2-methoxyethanethioyl)-2-methylhydrazinyl)-N′-methyl-2-oxo-N′-(phenylcarbonothioyl)ethane-sulfonohydrazide]
21	CC(=S)N(C)NC(=O)CS(=O)(=O)NN(C)C(=S)c1ccccc1 [Compound 86, 2-(2-ethanethioyl-2-methylhydrazinyl)-N′-methyl-2-oxo-N′-(phenylcarbonothioyl)ethane-sulfonohydrazide]
111	CN(NC(=O)C(=CN)S(=O)(=O)NN(C)C(=S)C1CC1)C(=S)C1CC1 [Compound 87, 1-amino-N′-(cyclopropanecarbonothioyl)-3-(2-(cyclopropanecarbonothioyl)-2-methyl-hydrazinyl)-N′-methyl-3-oxoprop-1-ene-2-sulfonohydrazide]
